Values of other authors in patent publication US20090202668A1, “Use of a polyphenol in the treatment of the metabolic syndrome and endothelial dysfunction or other vascular sequellae” (priority 2006, published 2009).

Target: T1, CETP (Homo sapiens, UniProt P11597)
T1 sequence (P11597 18-493): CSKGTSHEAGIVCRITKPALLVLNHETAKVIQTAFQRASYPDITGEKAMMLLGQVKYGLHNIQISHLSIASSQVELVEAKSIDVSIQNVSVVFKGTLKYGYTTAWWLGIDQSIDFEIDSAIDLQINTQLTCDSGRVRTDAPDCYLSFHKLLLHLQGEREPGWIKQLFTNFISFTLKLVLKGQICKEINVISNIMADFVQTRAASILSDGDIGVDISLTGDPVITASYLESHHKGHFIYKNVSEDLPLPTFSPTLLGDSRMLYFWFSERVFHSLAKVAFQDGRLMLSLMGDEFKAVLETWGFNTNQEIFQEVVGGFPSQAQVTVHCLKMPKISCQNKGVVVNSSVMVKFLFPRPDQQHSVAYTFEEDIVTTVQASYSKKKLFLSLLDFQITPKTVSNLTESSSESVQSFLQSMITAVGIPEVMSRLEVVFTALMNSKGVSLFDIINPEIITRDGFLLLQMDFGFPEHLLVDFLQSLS

results of HDL-increasing treatment (CETP-inhibitor): poor results
SMILES: CCOC(=O)N1c2ccc(C(F)(F)F)cc2[C@@H](N(Cc2cc(C(F)(F)F)cc(C(F)(F)F)c2)C(=O)OC)C[C@H]1CC [Torcetrapib]
side effects: major side effects such as death
